Data from patent publication US12667104B2, “Herbicidal compositions” (Yissum Research Development Company of the Hebrew …, priority 2019, dated 2026).

Tested on: weeds
Test: Weed control: small scale field experiment (1 m×1 m plots)
Type: in vivo
Conditions: for herbicidal effect category, 30 days: 30 days after the treatment; for herbicidal effect category, 30 days / herbicidal effect category, 12 days: 1 m×1 m plots, sprayed at 100 liter per hectare, concentration C (% by weight) per composition; for herbicidal effect category, 12 days: 12 days after the treatment; for herbicidal effect (in words): small scale field plots, summary of Table 1
Procedure: The active components(s), the concentration of the dissolved/suspended active components in the aqueous composition (C, expressed as % by weight of the composition) and the mixing ratios in case of multiple components are tabulated in Table 1.
Compositions 1-A to 1-L, 2-O, 2-P and 3-Q to 3-V were prepared by dissolving water-soluble powders or pellets in water, or adding to water sparingly soluble powders, or combination of both, at the concentrations set out in Table 1, to form sprayable solutions/suspensions.
The herbicidal compositions were sprayed at rate of application of 100 liter per hectare.
The herbicidal effect was determined 5, 12 and 30 days after the treatment. To this end, five categories were defined: • A category: complete control of the weeds was achieved. • B category: severe damage was caused to the weeds. • C category: some damage was caused to the weeds. • D category: minor damage was caused to the weeds. • E category: no damage was caused to the weeds.

Row | SMILES | herbicidal effect category, 30 days | herbicidal effect category, 12 days | herbicidal effect (in words)
1 | [Na+].[OH-] [Composition 1-A, NaOH] | B+ |  | 
2 | O=C([O-])O.[Na+] [Composition 1-C, NaHCO3] |  | D+ | 
3 | [K+].[OH-] [Composition 1-D, KOH] | B+ |  | 
4 | O=C([O-])O.[K+] [Composition 1-F, KHCO3] | C+ |  | 
5 | [Ca+2].[OH-].[OH-] [Composition 1-G, Ca(OH)2] | D+ |  | poor activity
6 | O=C([O-])O.O=C([O-])O.[Ca+2] [Composition 1-I, Ca(HCO3)2] |  | D+ | poor activity
